Measured values published in patent publication US12528773B2, “Non-lysosomal glucosylceramidase inhibitors and uses thereof” (ALECTOS THERAPEUTICS INC., priority 2020, dated 2026).

Key:
Assay type in all cases: biochemical
GBA2 [1] = molecular target: T1, GBA2 (Homo sapiens (Human), UniProt Q9HCG7); test: Inhibition of GBA2 in cell lysate (4-methylumbelliferone glucopyranoside substrate); conditions: HEK293T-overexpressing GBA2 cellular homogenate, pH 5.5; read-out: GBA2 IC50;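 also: homogenate of stably transfected HEK293T cells pre-treated with a GCase inhibitor, test compound preincubated 5 min at 37 °C, substrate reaction 20 min at 37 °C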
T1 sequence (Q9HCG7 whole entry): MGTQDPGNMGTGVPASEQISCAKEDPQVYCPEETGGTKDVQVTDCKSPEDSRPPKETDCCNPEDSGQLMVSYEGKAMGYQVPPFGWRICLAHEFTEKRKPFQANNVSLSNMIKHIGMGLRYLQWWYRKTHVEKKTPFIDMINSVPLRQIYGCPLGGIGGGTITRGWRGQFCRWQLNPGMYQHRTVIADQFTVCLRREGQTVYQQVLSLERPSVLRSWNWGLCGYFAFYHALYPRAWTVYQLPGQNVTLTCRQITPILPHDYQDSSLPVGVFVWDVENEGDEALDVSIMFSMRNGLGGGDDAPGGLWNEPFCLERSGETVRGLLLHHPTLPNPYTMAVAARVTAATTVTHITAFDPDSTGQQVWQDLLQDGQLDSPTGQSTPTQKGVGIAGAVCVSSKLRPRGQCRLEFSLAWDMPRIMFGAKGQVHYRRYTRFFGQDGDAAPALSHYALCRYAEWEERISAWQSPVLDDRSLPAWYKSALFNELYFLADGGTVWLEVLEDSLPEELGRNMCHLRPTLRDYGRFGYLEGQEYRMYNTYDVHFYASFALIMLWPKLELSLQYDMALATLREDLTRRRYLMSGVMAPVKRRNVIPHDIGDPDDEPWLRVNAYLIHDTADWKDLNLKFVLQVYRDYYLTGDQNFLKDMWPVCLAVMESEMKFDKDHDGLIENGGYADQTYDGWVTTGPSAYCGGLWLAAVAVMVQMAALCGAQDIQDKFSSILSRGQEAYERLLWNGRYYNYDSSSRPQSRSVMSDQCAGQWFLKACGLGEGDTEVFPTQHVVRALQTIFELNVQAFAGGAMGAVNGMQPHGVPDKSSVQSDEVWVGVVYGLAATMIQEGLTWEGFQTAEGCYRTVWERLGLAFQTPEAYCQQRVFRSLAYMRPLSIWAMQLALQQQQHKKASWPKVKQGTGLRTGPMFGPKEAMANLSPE

[2] = test system: rat intestinal alpha-glucosidases; test: Inhibition of rat intestinal alpha-glucosidases (rat intestinal lysate, glucose detection); conditions: compound concentration 25 μM, sucrose as substrate
Protocol: Assay for Determination of Inhibition of Rat Intestinal Alpha-Glucosidases
Various concentrations of test compounds were prepared in DMSO and then diluted into buffer consisting of 100 mM citric acid, 200 mM disodium phosphate, pH 6.0. Rat intestinal acetone powder (Sigma) was dissolved to 12.5 mg/mL in assay buffer and sonicated in an ice bath, centrifuged, and the supernatant was collected, aliquoted and stored at −20° C. until use. On the day of the assay, the rat intestinal lysate was diluted to 6.25 mg/mL (sucrose reactions) and 2.1 mg/ml (maltose reactions) in assay buffer. The final reaction solutions for sucrose contained 2.1 mg/mL rat intestinal lysate, 40 mM sucrose, 50 or 25 μM of test compound, and 3.3% DMSO. The final reaction solution for maltose contained 0.69 mg/mL rat intestinal lysate, 10 mM maltose, 50 or 25 μM of test compound, and 3.3% DMSO. The reaction was initiated by the addition of substrate (sucrose or maltose) and allowed to proceed at 37° C. for 20 min to assess rat intestinal alpha-glycosidase activities. The reaction was stopped by addition of 20 μL of 2 M Tris-HCl, pH 7.0. The glucose produced during the reaction was detected using a commercial Amplex Red glucose detection kit from Thermo Fisher. For a full plate, the Amplex Red detection mixture was prepared by mixing 35 μL glucose oxidase, 35 μL horseradish peroxidase and 35 μL Amplex Red into 3395 μL 1× Amplex Red detection buffer. A total of 30 μL of detection mixture was added to each well. Fluorescence was measured in kinetic mode on a Biotek Synergy H4 plate reader at a wavelength of 573 nm for excitation and 610 nm for emission for 15 min and quantified from the data at 10 min. Incubations without added rat intestinal lysate were used to correct for the background amount of glucose present in the samples. Incubations without added test compound were used to define maximal enzyme activity. Percent inhibition of rat intestinal alpha-glucosidases was determined by dividing the amount of glucose detected in the presence of test compound by the amount of glucose detected in the maximal enzyme activity wells. All conditions were analyzed in triplicate. […] The final reaction solutions were the same as described above for the Amplex Red Detection kit. After a 20 min reaction time at 37° C., 100 μL of hexokinase glucose reagent was added to all test wells except for the no enzyme added control wells and no test compound added wells. The plate was incubated for a further 15 min at room temperature and the absorbance was read at 340 nm on a Biotek Synergy H4 plate reader. The percent inhibition of rat intestinal alpha-glucosidases was determined in a similar manner as described above.

GBA2 [3] = molecular target: T1, GBA2; test: Binding specificity for GBA2 over other molecules, Ki or IC50 ratio
Description: In some embodiments, one or more of the compounds according to the invention may specifically bind a GBA2. In alternative embodiments, one or more of the compounds according to the invention may specifically bind the active site of a GBA2. […] In alternative embodiments, one or more of the compounds according to the invention may specifically bind the human non-lysosomal glucosylceramidase (GBA2) over the human lysosomal glucosylceramidase (GCase) and/or the human cytosolic glucosylceramidase (GBA3). In alternative embodiments, one or more of the compounds according to the invention may specifically bind the human non-lysosomal glucosylceramidase (GBA2) over the human glucosylceramide synthase (GCS). In alternative embodiments, one or more of the compounds according to the invention may specifically bind the human non-lysosomal glucosylceramidase (GBA2) over an intestinal alpha-glucosidase, where the intestinal alpha-glucosidase may be a sucrase-isomaltase or a maltase-glucoamylase.

Row | SMILES | IC50 (GBA2 [1]) [nM] | rat α-glu. (% inhib.) [2] [%] | binding specificity, IC50(other molecule)/IC50(GBA2) or Ki ratio (GBA2 [3])
1 | O[C@H]1[C@H](O)CN(CCc2c(F)cc(N3CCCC3)cc2F)C[C@@H]1O [Example 10, (3S,4r,5R)-1-(2,6-difluoro-4-(pyrrolidin-1-yl)phenethyl)piperidine-3,4,5-triol] | < 100 | 7 | enhanced binding specificity
2 | O[C@H]1[C@H](O)CN(C[C@H]2CCN(c3cnccc3C(F)(F)F)C2)C[C@@H]1O [Example 20, (3S,4R,5R)-1-(((R)-1-(4-(trifluoromethyl)pyridin-3-yl)pyrrolidin-3-yl)methyl)piperidine-3,4,5-triol] | < 100 | 4 | enhanced binding specificity
3 | Cc1noc(C)c1-c1cc(F)c(CCN2C[C@@H](O)[C@H](O)[C@@H](O)C2)c(F)c1 [Example 14, (3S,4r,5R)-1-(4-(3,5-dimethylisoxazol-4-yl)-2,6-difluorophenethyl)piperidine-3,4,5-triol] | < 100 | 2 | enhanced binding specificity
4 | O[C@H]1[C@H](O)CN(CCc2c(F)cc(N3CCOCC3)cc2F)C[C@@H]1O [Example 12, (3S,4r,5R)-1-(2,6-difluoro-4-morpholinophenethyl)piperidine-3,4,5-triol] | < 100 | 4 | enhanced binding specificity
5 | O[C@H]1[C@H](O)CN(C[C@H]2CCCN(c3cccnc3C(F)(F)F)C2)C[C@@H]1O [Example 31, (3S,4R,5R)-1-(((R)-1-(2-(trifluoromethyl)pyridin-3-yl)piperidin-3-yl)methyl)piperidine-3,4,5-triol] | < 100 | 0 | enhanced binding specificity
6 | Cc1ccccc1N1CC[C@H](CN2C[C@@H](O)[C@H](O)[C@@H](O)C2)C1 [Example 18, (3S,4R,5R)-1-(((R)-1-(o-tolyl)pyrrolidin-3-yl)methyl)piperidine-3,4,5-triol] | < 100 | 0 | enhanced binding specificity
7 | O[C@H]1[C@H](O)CN(CCc2c(F)cc(N3CCCCC3)cc2F)C[C@@H]1O [Example 11, (3S,4r,5R)-1-(2,6-difluoro-4-(piperidin-1-yl)phenethyl)piperidine-3,4,5-triol] | < 100 | 10 | enhanced binding specificity
8 | O[C@H]1[C@H](O)CN(C[C@H]2CCCN(c3ncccc3C(F)(F)F)C2)C[C@@H]1O [Example 29, (3S,4R,5R)-1-(((R)-1-(3-(trifluoromethyl)pyridin-2-yl)piperidin-3-yl)methyl)piperidine-3,4,5-triol] | < 100 | 4 | enhanced binding specificity
9 | O[C@H]1[C@H](O)CN(CCc2c(F)cc(C3CCOCC3)cc2F)C[C@@H]1O [Example 13, (3S,4r,5R)-1-(2,6-difluoro-4-(tetrahydro-2H-pyran-4-yl)phenethyl)piperidine-3,4,5-triol] | < 100 | 5 | enhanced binding specificity
10 | O[C@H]1[C@H](O)CN(C[C@H]2CC[C@H](C(F)(F)F)CC2)C[C@@H]1O [Example 1, (3S,4R,5R)-1-(((1r,4R)-4-(trifluoromethyl)cyclohexyl)methyl)piperidine-3,4,5-triol] | < 100 | 0 | enhanced binding specificity
11 | O[C@H]1[C@H](O)CN(C[C@H]2CCN(c3nc(C(F)(F)F)cs3)C2)C[C@@H]1O [Example 21, (3S,4R,5R)-1-(((R)-1-(4-(trifluoromethyl)thiazol-2-yl)pyrrolidin-3-yl)methyl)piperidine-3,4,5-triol] | < 100 | 6 | enhanced binding specificity
12 | O[C@H]1[C@H](O)CN(C[C@@H]2CCCN(c3ncccc3C(F)(F)F)C2)C[C@@H]1O [Example 36, (3S,4S,5R)-1-(((S)-1-(3-(trifluoromethyl)pyridin-2-yl)piperidin-3-yl)methyl)piperidine-3,4,5-triol] | < 100 | 0 | enhanced binding specificity
13 | CCCCOc1cc(F)c(CN2C[C@@H](O)[C@H](O)[C@@H](O)C2)c(F)c1 [Example 199, (3S,4r,5R)-1-(4-butoxy-2,6-difluorobenzyl)piperidine-3,4,5-triol] | 1000 to 25000 | 5 | –
14 | O[C@H]1[C@H](O)CN(C[C@H]2CCN(c3cccc(C(F)(F)F)n3)C2)C[C@@H]1O [Example 142, (3S,4R,5R)-1-(((R)-1-(6-(trifluoromethyl)pyridin-2-yl)pyrrolidin-3-yl)methyl)piperidine-3,4,5-triol] | < 100 | 0 | –
15 | O[C@H]1[C@H](O)CN(C[C@@H]2CCCN(c3ccncc3C(F)(F)F)C2)C[C@@H]1O [Example 179, (3S,4S,5R)-1-(((S)-1-(3-(trifluoromethyl)pyridin-4-yl)piperidin-3-yl)methyl)piperidine-3,4,5-triol] | 100 to 1000 | 6 | –
16 | O=C(C1CCCCC1)N1CCC(F)(CN2C[C@@H](O)[C@H](O)[C@@H](O)C2)CC1 [Example 191, Cyclohexyl(4-fluoro-4-(((3S,4r,5R)-3,4,5-trihydroxypiperidin-1-yl)methyl)piperidin-1-yl)methanone] | 100 to 1000 | 1 | –
17 | O[C@H]1[C@H](O)CN(CC2(F)CCN(c3nc4ccccc4s3)CC2)C[C@@H]1O [Example 196, (3S,4r,5R)-1-((1-(benzo[d]thiazol-2-yl)-4-fluoropiperidin-4-yl)methyl)piperidine-3,4,5-triol] | 100 to 1000 | 10 | –
18 | O[C@H]1[C@H](O)CN(C[C@H]2CCN(c3nc4ccccc4s3)C2)C[C@@H]1O [Example 23, (3S,4R,5R)-1-(((R)-1-(benzo[d]thiazol-2-yl)pyrrolidin-3-yl)methyl)piperidine-3,4,5-triol] | < 100 | 5 | –
19 | O[C@H]1[C@H](O)CN(C[C@H]2CC[C@@H](C(F)F)CC2)C[C@@H]1O [Example 186, (3S,4R,5R)-1-(((1s,4S)-4-(difluoromethyl)cyclohexyl)methyl)piperidine-3,4,5-triol] | 100 to 1000 | 8 | –
20 | O[C@H]1[C@H](O)CN(CC2(F)CCN(c3ccccc3C(F)(F)F)CC2)C[C@@H]1O [Example 193, (3S,4r,5R)-1-((4-fluoro-1-(2-(trifluoromethyl)phenyl)piperidin-4-yl)methyl)piperidine-3,4,5-triol] | < 100 | 2 | –
